Like-named read-outs stand apart in the source and are kept apart here.

The IC50 is the concentration that gives 50% inhibition. The term Kd denotes the equilibrium constant for the complex coming apart. In general, MRT inf refers to a mean duration of stay, worked out from the concentration-time curve. By Tmax is commonly meant the time at which the peak concentration occurs.

Series [1] has as its system Kappas-299 cells (NPM-ALK). Description: Cell growth inhibition assay (WST-8), Kappas-299. Type of series: cell-based. The settings on record: read-out: Kappas-299 (nM) (NPM-ALK), 50% of cell growth inhibition (IC50), WST-8, versus DMSO control. How it is done: H3122 and Kappas-299 cells were purchased from American Type Culture Collection (Manassas, Va., USA) and were used within 2 months after initiating from original stocks. All cell lines were cultured as recommended. For cell growth inhibition assay, cells were treated with different concentrations of the tested compounds, diluted from stock to culture media containing a 0.2% DMSO as the final concentration. Cell viability was determined using the WST-8 cell proliferation assay kit (Dojindo Molecular Technologies) according to manufacturer's instructions. Three independent experiments in triplicates were performed.
(Tetrazolium dyes change colour on reduction, which living cells bring about.)

In another series the target is T1, ALK G1269A (Homo sapiens, UniProt Q9UM73, G1269A).
T1 construct: made in house; host or cells: SF9 insect cells
Description: Mutant ALK kinase inhibition, Lance TR-FRET, G1269A. Conditions: Table 5; ATP 100 μM. The class given is biochemical. How it is done:
(§1) The cytoplasmic domain (amino acid 1058-1620) of wild-type human ALK protein expressed as N-terminal GST-fusion protein was purchased from Carna Biosciences, Inc (Japan). Mutated ALK proteins were expressed in SF9 insect cells with N-terminal tags cleaved after purification. Kinase activities of all enzymes were assessed using a Lance® TR-FRET assay kit from Perkin Elmer Life Sciences (Waltham, Mass.). 2.5 μL of compound solution and 5 μL of protein solution were added into a black low volume 384 well microtiter plate which was incubated for 30 minutes with gentle shaking at room temperature, followed by adding 2.5 μL of fluorescently labeled peptide substrate (ULight™-IRS-1 (Tyr983) Peptide) and ATP mixture solution. The kinase reaction was performed in 50 mM HEPES (pH 7.5) with 1 mM EGTA, 1 mM MgCl2, and 2 mM DTT, 0.01% Tween-20 added right before the assay. Final concentrations of ATP, substrates, and DMSO were 100 μM, 20 nM, and 0.5%, respectively. […] The final mixture was incubated in the dark for 1 hour before the plate was read on a Tecan Infinite M-1000 multi-mode plate reader (Tecan, Durham N.C.) with an excitation wavelength of 320 nm. Emission intensities were measured at both 620 and 665 nm with the intensity ratio between 665 and 620 nm corresponding to the peptide substrate phosphorylation. […]
For orientation: TR-FRET usually uses a lanthanide donor and a delayed reading to cut background.

Another series has as its target T2, ALK L1196M (Homo sapiens, UniProt Q9UM73, L1196M).
T2 construct: made in house; host or cells: SF9 insect cells
Briefly: Mutant ALK kinase inhibition, Lance TR-FRET, L1196M. The class given is biochemical. Conditions: Table 5; ATP 100 μM. As to the method:
as §1

In a further series the target is ALK V1180L (Homo sapiens, UniProt Q9UM73, V1180L). Briefly: Cell based assay, ALK V1180L. Set-up: key: + = active; −− = inactive. Conditions: Table 5.
The target in another series is ALK F1174L (Homo sapiens, UniProt Q9UM73, F1174L). Description: Cell based assay, ALK F1174L. The settings on record: Table 5. On the set-up: key: + = active; −− = inactive.
For the next series, the target named is T3, ROS1 (Homo sapiens, UniProt P08922).
T3 construct: purchased LeadHunter Discovery Services (currently DiscoverX Corporation), KINOMEscan screening service
Briefly: KINOMEscan kinase panel, ROS1. The class given is binding. An excerpt:
(§2) Cpd. No. 5 was screened for its activity against a panel of human kinases using the KINOMEscan™ screening platform from LeadHunter Discovery Services (currently DiscoverX Corporation (Fremont, Calif. 94538, United States). See Table 7.

A further series concerns the target T4, FAK (Homo sapiens, UniProt Q05397).
T4 construct: purchased LeadHunter Discovery Services (currently DiscoverX Corporation), KINOMEscan screening service
Briefly: KINOMEscan kinase panel, FAK. Type of series: binding.
Excerpt: as §2

The next series addresses T5, FER (Homo sapiens, UniProt P16591).
T5 construct: purchased LeadHunter Discovery Services (currently DiscoverX Corporation), KINOMEscan screening service
Description: KINOMEscan kinase panel, FER. Type of series: binding.
Excerpt: as §2

For another series, the target named is T6, IGF1R (Homo sapiens, UniProt P08069).
T6 construct: purchased LeadHunter Discovery Services (currently DiscoverX Corporation), KINOMEscan screening service
Description: KINOMEscan kinase panel, IGF1R. The class given is binding.
Excerpt: as §2

Series [2] in a line: Pharmacokinetics in beagle dogs. The class given is in vivo. Conditions: Table 9 (beagle dogs). As to the method: Routine pharmacokinetics studies were performed for Cpd. No. 5 in SD rats and beagle dogs.
The test system of series [3] is Human lymphoma cells, KARPAS 299 xenograft. Briefly: KARPAS 299 xenograft tumor growth in SCID mice. The class given is in vivo. The settings on record: given orally, once daily for 3 weeks, FIG. 1. How it is done: Cpd. Nos. 5 and 6 were dissolved in a solution of 98% PEG200: 2% TPGS (Sigma).
Human lymphoma cells, KARPAS 299 were maintained at 37° C., 95% air, 5% carbon dioxide in RPMI 1640 medium supplemented with 10% Fetal Bovine Serum, 100 units/ml of penicillin and 100 units/ml of streptomycin (GIBCO™, Invitrogen Corp.) and passaged twice weekly.
Tumor cells for xenografts were washed twice in PBS, and re-suspended in an ice cold mixture of 1:1 PBS and Matrigel (BD Biosciences, Invitrogen Corp.) for a final Matrigel protein concentration of 5 mg/ml. Cells at 5×10^6 cells in 0.1 ml were injected subcutaneously (s.c.) into the flank region of each mouse. All tumors were inoculated into SCID mice (strain:236 C.B-17 SCID, Charles River).
The size of tumors growing in the mice was measured in two dimensions using calipers. Tumor volume (mm^3)=(AxB^2)/2 where A and B are the tumor length and width (in mm), respectively. During treatment, tumor volume and body weight were measured three times a week. After the treatment was stopped, tumor volume and body weight was measured at least once a week.
Tumors were not allowed to exceed 10% of the animal's total body weight. If an animal had two or more tumors the total weight of all tumors were not allowed to exceed 10% of the animal's total body weight. […]

`Cc1cc(Nc2ncc(Cl)c(Nc3ccccc3S(=O)(=O)C(C)C)n2)c(OC(C)C)cc1C1=CCN(C2CCOCC2)CC1` [Cpd. No. 5, 5-chloro-N2-(2-isopropoxy-5-methyl-4-(1-(tetrahydro-2H-pyran-4-yl)-1,2,3,6-tetrahydropyridin-4-yl)phenyl)-N4-(2-(isopropylsulfonyl)phenyl)pyrimidine-2,4-diamine]: the figures for the IC50 (in series [1]; on ALK G1269A; against ALK L1196M) were 13 nM, 4.3 nM and 0.73 nM, respectively. Also, at ALK V1180L, the “V1180L (c)” value is “+ (c)”. In addition, at ALK F1174L, the “F1174L (c)” value is recorded as “−− (c)”. Besides, the Kd on ROS1 stood at 0.73 nM; at FAK, 5.4 nM; at FER it was 11 nM; on IGF1R, 9 nM. The “F(AUC0-t)” value in [2] (PO 5 mg/kg vs IV 1 mg/kg) came out at 33.3%. The compound further yielded an MRT inf in series [2] (dog, in vivo, IV 1 mg/kg) of 22.1 h. Further, the AUC(0-t) in series [2] (dog, in vivo, IV 1 mg/kg, read-out: AUC0-t (ng · h/mL) IV) was determined as 1820 ng·h/mL; in series [2] (dog, in vivo, PO 5 mg/kg, read-out: AUC0-t (ng · h/mL) PO), 2930 ng·h/mL. Also, the AUC(0-inf) in [2] (dog, in vivo, IV 1 mg/kg, read-out: AUC0-∞ (ng · h/mL) IV) is 2140 ng·h/mL; in series [2] (dog, in vivo, PO 5 mg/kg, read-out: AUC0-∞ (ng · h/mL) PO), 3710 ng·h/mL. In addition, the clearance in series [2] (dog, in vivo, IV 1 mg/kg, read-out: CL (iv) (converted)) is 8.1 mL/min/kg. Further, the Cmax is 314 ng/mL in series [2] (dog, in vivo, IV 1 mg/kg, read-out: Cmax(ng/mL) IV) and 239 ng/mL in series [2] (dog, in vivo, PO 5 mg/kg, read-out: Cmax(ng/mL) PO). The Tmax in series [2] (dog, in vivo, IV 1 mg/kg, read-out: Tmax (h) IV) worked out at 0.083 h; in series [2] (dog, in vivo, PO 5 mg/kg, read-out: Tmax (h) PO) it was 1.67 h. Besides, in [2] (dog, in vivo, IV 1 mg/kg, read-out: Vss (iv)), the Vd came to 10.8 L/kg. Moreover, the half-life in series [2] (dog, in vivo, IV 1 mg/kg, read-out: t1/2 (h) IV (converted)) was 19.7 h; in series [2] (dog, in vivo, PO 5 mg/kg, read-out: t1/2 (h) PO (converted)), 20 h. Moreover, the “tumor growth in the KARPAS 299 xenograph model” value in [3] is “inhibit tumor growth”.

Values taken from patent US10709705B2, “Aminopyrimidines as ALK inhibitors” (THE REGENTS OF THE UNIVERSITY OF MICHIGAN, priority 2016, dated 2020).
